These results are taken from patent US20180168151A1, “COMPOSITION AND SYSTEM FOR ATTRACTING LEPIDOPTEROUS INSECTS” (The New Zealand Institute for Plant and Food Research …, priority 2015, published 2018).

One assay deals with Lepidopterous insects. Put plainly: Summary of field attractant trials (description). Format: in vivo. Conditions: other compounds released by infested apple seedlings; results were inconsistent. On the procedure: In the trials described in the Examples, the compounds of formula I were placed inside a permeable polyethylene bag. The acetic acid was applied to a cotton ball inside a 5 ml polyethylene vial containing a 1 mm hole. The bag and vial were placed in the centre of a sticky trap.

Assay [1] relates to ESBM. Put plainly: Example 5: binary and ternary blends, baited traps. Format: in vivo, Spilonota ocellana. Conditions: 100 mg 2-phenylethanol added to 100 mg benzyl nitrile and 3 mL acetic acid. The procedure: (§1) This trial was conducted in a mixed variety apple orchard in Summerland, British Columbia, Canada from 28 Jul. to 11 Aug. 2014 targeting ESBM and threelined leaf rollers (TLLR). […] White delta traps (Trece Inc) were used.

The subject of a further assay is LBAM. The experiment in a line: Example 1B: individual compounds as attractants, baited traps. It counts as in vivo, Epiphyas postvittana. The note with it: tested individually, 10 mg (acetic acid 0.3 mL); no significant differences among treatments. On the procedure:
(§2) This experiment was conducted from 28 Nov. to 12 Dec. 2013 for LBAM and 3-10 Jun. 2015 for ESBM and OBLR to investigate the biological activity of the individual volatile organic compounds. Lures of benzyl alcohol, benzyl nitrile, indole, 2-phenyethanol, (E)-nerolidol, and 0.3 mL acetic acid were made by dispensing 10 mg of each compound on a Boomerang regular cellulose acetate filter (7.5 mm diameter×10 mm, Moss Packaging Co. Ltd., Wellington, New Zealand) inside a permeable polyethylene bag (100 μm wall thickness, 20 mm×20 mm, Masterton, New Zealand) that was then heat-sealed. A trap with a lure without chemical was used as negative control.

Assay [2] has as its system OBLR. The assay is described as above. Format: in vivo, Choristoneura rosaceana. The note with it: tested individually, 10 mg. On the procedure:
as §2

For the next assay, the system named is TLLR. The experiment in a line: Example 5: binary and ternary blends, baited traps. The note with it: 100 mg 2-phenylethanol added to 100 mg benzyl nitrile and 3 mL acetic acid. Format: in vivo, Pandemis limtata. The procedure: as §1
Assay [3] deals with ESBM. The note with it: for numbers of ESBM males and females attracted, each alone, compared with each other: 10 mg benzyl nitrile alone, 0.3 mL acetic acid alone. On the procedure: (§3) The variance of mean captures obtained with each compound or each blend of compounds was stabilized using the √(x+1) transformation of counts and the significance of treatment effects tested using ANOVA.
(§4) This experiment was conducted from 21 Jun. to 2 Jul. 2015 only for ESBM and OBLR in a mixed varieties apple orchard in Summerland, British Columbia, Canada (49°34′50.02″N, 119°38′16.57″W). The relative attractiveness of the following treatments was investigated: 1) 10 mg benzyl nitrile alone; 2) 0.3 mL acetic acid alone; and 3) 10 mg benzyl nitrile+0.3 mL acetic acid. A trap with a blank lure was used as negative control.

Assay [4] deals with OBLR. The note with it: for numbers of OBLR males and females attracted, each alone, compared with each other: 10 mg benzyl nitrile alone, 0.3 mL acetic acid alone. The procedure:
as §3, §4

Assay [5] concerns ESBM. Put plainly: Example 7A: various doses of benzyl nitrile with constant acetic acid, baited traps. Format: in vivo, Spilonota ocellana. The procedure: Large white delta traps (Trece Inc) were used. […] Sticky bases were checked weekly during the experimental period.
This experiment was conducted between 8 Jul. to 22 Jul. […] This trial targeted ESBM. The relative attractiveness of three binary blends containing constant amount of acetic acid (3 mL) plus varying amounts of benzyl nitrile (1, 10, and 100 mg) was investigated. […] Experimental protocol was similar to Example 4.

Assay [6] deals with ESBM. On the procedure: as §3
(§5) This experiment was conducted between the 11th to the 22 Jul. 2014 in a mixed variety organic apple orchard in Summerland, British Columbia, Canada. Large white delta traps (Trece Inc) were used. The loadings of blends were as follow: 1) 100 mg benzyl nitrile and 3 mL acetic acid; 2) 100 mg of 2-phenyethanol and 3 mL acetic acid; 3) 100 mg benzyl alcohol and 3 mL acetic acid. Traps baited with 3 mL of acetic acid was used to quantify the role of acetic acid. A trap with a blank lure was used as negative control. Traps were baited with the compound of formula I and placed in 5 rows, with five replicates of each treatment in a randomized block design. Traps were positioned 1.5 m above the ground in each trap tree, and were spaced 20 m apart in each row. Each treatment was assigned randomly to a trap tree within each row of trees. The polythene sachet and the acetic acid vial were attached to the side of the traps using Velcro tape. Sticky bases were checked weekly during the experimental period.
(§6) This experiment was conducted between 3 Jul. to 17 Jul. 2014 in a mixed variety organic apple orchard in Summerland, British Columbia, Canada using the same experimental protocol as Example 4. The trial targeted both ESBM and OBLR. The relative attractiveness of the following treatments was investigated: 1) 100 mg benzyl nitrile alone; 2) 3 mL acetic acid alone; and 3) 100 mg of benzyl nitrile and 3 mL acetic acid. A trap with a blank lure was used as negative control.

Assay [7] concerns OBLR. The procedure: as §3, §5, §6
Assay [8] deals with ESBM. Put plainly: Example 1B: individual compounds as attractants, baited traps. It counts as in vivo, Spilonota ocellana. The note with it: tested individually, 10 mg (acetic acid 0.3 mL); no significant differences among treatments. The procedure: as §2
The mark [9] stands for this setting: 10 mg benzyl nitrile added to 0.3 mL acetic acid, P<0.05.
Where [10] appears, read: binary blend containing 1 mg benzyl nitrile, 3 mL acetic acid.
The mark [11] stands for this setting: binary blend with constant 3 mL acetic acid.
Setting [12] is: 100 mg benzyl nitrile added to 3 mL acetic acid.

Turning to `C=CC(C)(O)CC/C=C(\C)CCC=C(C)C` (centres unmarked) [(E)-nerolidol], the “attractant activity against some insects” value with Lepidopterous insects is “some attractant activity”.
As to `OCCc1ccccc1` [2-phenylethanol], in the assay on ESBM [1], the “change in number of ESBM males and females on addition to binary blend benzyl nitrile/acetic acid” value was “did not result in significant increase”. Further, the “attraction of adult LBAM into traps” value with LBAM is “attracted males and females into the traps”. For the same compound, in the assay with OBLR [2], the “attraction of OBLR into traps” value was “attracted males and females”. Also, the “change in number of TLLR males and females on addition to binary blend benzyl nitrile/acetic acid” value with TLLR was “did not result in significant increase”.
For the compound `N#CCc1ccccc1` [benzyl nitrile], the “change in number of ESBM males and females caught on addition to acetic acid” value with ESBM [3] (setting [9]) is “significant increases”. Also, in the assay on ESBM [3], the “numbers of ESBM males and females attracted, each alone, compared with each other” value is “attracted similar numbers”. For the same compound, the “change in number of OBLR males and females caught on addition to acetic acid” value in the assay with OBLR [4] (setting [9]) is reported as “significant increases”. In addition, the “numbers of OBLR males and females attracted, each alone, compared with each other” value in the assay on OBLR [4] is reported as “attracted similar numbers”. In addition, in the assay with LBAM, the “attraction of adult LBAM into traps” value is “attracted males and females into the traps”. Also, in the assay on ESBM [5] (setting [10]), the “ESBM females attracted compared with acetic acid alone” value is “significantly more females” and the “response of ESBM males compared with acetic acid alone” value was “not significant”. Moreover, in the assay with ESBM [5] (setting [11]), the “change in number of ESBM males and females caught on increasing dose from 1 mg to 10 mg” value is on record as “significant increase”; the “change in number of ESBM males and females caught on increasing dose from 10 mg to 100 mg” value is “did not result in a significant increase”. Also, in the assay on ESBM [6] (setting [12]), the “fold increase in number of ESBM females caught on addition to acetic acid” value was 3 fold and the “fold increase in number of ESBM males caught on addition to acetic acid” value amounted to 4 fold. Also, the “attractiveness to adults ESBM, compound alone” value in the assay on ESBM [6] (100 mg benzyl nitrile alone) was “not attractive”. Further, in the assay with OBLR [7] (setting [12]), the “fold increase in number of OBLR females caught on addition to acetic acid” value is given as 9 fold and the “fold increase in number of OBLR males caught on addition to acetic acid” value stood at 2 fold. Also, in the assay on OBLR [7] (100 mg benzyl nitrile alone), the “attractiveness to adults OBLR, compound alone” value was “not attractive”. The “attraction of ESBM into traps” value in the assay on ESBM [8] is “attracted males and females into the traps”.
As to `CC(=O)O` [acetic acid], the “numbers of ESBM males and females attracted, each alone, compared with each other” value in the assay on ESBM [3] is reported as “attracted similar numbers”. Further, the “numbers of OBLR males and females attracted, each alone, compared with each other” value in the assay on OBLR [4] was “attracted similar numbers”. For the same compound, the “attraction of adult LBAM into traps” value with LBAM is “attracted males and females into the traps”. For the same compound, the “ESBM males and females attracted, compared with traps baited with benzyl nitrile alone” value in the assay with ESBM [6] (3 mL acetic acid alone) was “significantly attracted more males and females”. Moreover, in the assay on OBLR [7] (3 mL acetic acid alone), the “OBLR males and females attracted, compared with traps baited with benzyl nitrile alone” value is “significantly attracted more males and females”. In addition, the “attraction of ESBM into traps” value in the assay on ESBM [8] is “attracted males and females into the traps”.
Consider `c1ccc2[nH]ccc2c1` [indole], for which the “attractant activity against some insects” value with Lepidopterous insects is “some attractant activity”.
For the compound `OCc1ccccc1` [benzyl alcohol], in the assay on LBAM, the “attraction of adult LBAM into traps” value is “attracted males and females into the traps”.
